≈ marks a conversion by molar mass, not a printed value.
Legend:
Assay in all cases: MIC, broth microdilution (NCCLS)
[1] = test system: Streptococcus pneumoniae Stpn_Mef 5654; format: cell-based; details: Table 7, Strain ID K (Table 6): S. pneumoniae Stpn_Mef 5654; in µg/mL (unit assumed)
Protocol: (§1) Strains. The bacterial isolates listed in Table 4 were cultivated from −70° C. frozen stocks by two consecutive overnight passages (P1, P2) at 35° C. on 5% blood agar (Remel, Lenexa, Kans.). Chocolate agar (Remel) is used for Haemophilus influenzae. H. influenzae and Streptococcus pneumoniae are incubated in 5-10% CO2
(§2) Drug Stock Preparation. To determine the amount of solvent to be used to give the desired final concentration, the formula “weight obtained in mg/final concentration in mg/ml” will be used. It will give the amount of solvent in ml needed to be added to give the desired concentration. For example, if 2.5 mg/ml is the desired concentration and the weight of compound is 13.7 mg, then the amount of solvent to be added is […]. Methanol is used as the solvent to dissolve the test compounds. Further dilution of stock is done in sterile, deionized water. Drug stocks are kept frozen at −70° C., protected from light.
(§3) Susceptibility Testing. MICs are determined by the broth microdilution method in accordance with the NCCLS guidelines. In brief, organism suspensions are adjusted to a 0.5 McFarland standard to yield a final inoculum between 3×10^5 and 7×10^5 CFU/ml. Drug dilutions and inocula are made in sterile, cation adjusted Mueller-Hinton Broth (CAMHB) (Remel) for all but S. pneumoniae [CAMHB with 2-5% lysed horse blood (Remel)] and H. influenzae [Haemophilus Test Medium (Remel)]. An inoculum volume of 100 μl is added to wells containing 100 μl of broth with 2-fold serial dilutions of drug. All inoculated microdilution trays are incubated in ambient air at 35° C. for 18-24 hours, except for S. pneumoniae, and H. influenzae (both at 5-10% CO2).
(§4) Following appropriate incubation, the MIC is determined and the MIC is defined as the lowest concentration of the drug that prevented visible growth.
as §1, with “8” for “4”
(§5) Following appropriate incubation, the MIC is determined and the MIC is defined as the lowest concentration of the drug that prevented visible growth. […] Antibacterial activity of representative compounds of the invention were compared against telitromycin.

[2] = test system: Streptococcus pneumoniae Stpn_280-962; format: cell-based; details: Table 7, Strain ID H (Table 6): S. pneumoniae Stpn_280-962
In short: (§6)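 Broth microdilution per NCCLS in cation-adjusted Mueller-Hinton broth, with 2-5% lysed horse blood added for S. pneumoniae. Inoculum 3×10^5–7×10^5 CFU/ml, 2-fold drug dilutions, 18-24 h at 35° C; S. pneumoniae under 5-10% CO2, others ambient air. MIC = lowest concentration preventing visible growth.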

[3] = test system: Streptococcus pyogenes Stpy_8668; format: cell-based; details: Table 7, Strain ID E (Table 6): S. pyogenes Stpy_8668
In short: as §6

[4] = test system: S. pneumoniae Stpn_Erm 6849; format: cell-based, Streptococcus pneumoniae; details: Table 7, Strain ID I (Table 6): S. pneumoniae Stpn_Erm 6849; unit assumed
Protocol: as §1, §2, §3, §4

[5] = test system: Haemophilus influenzae Hain_49247; format: cell-based; details: Table 7, Strain ID M (Table 6): H. influenzae Hain_49247; unit assumed
Protocol: as §1, §2, §3, §4
as §1, with “8” for “4”
as §5

[6] = test system: Staphylococcus epidermidis Step_14990; format: cell-based; details: Table 7, Strain ID B (Table 6): S. epidermidis Step_14990; in µg/mL (unit assumed)
Protocol: as §1, §2, §3, §4
as §1, with “8” for “4”
as §5

[7] = test system: Streptococcus pneumoniae Stpn_Mef S 3427; format: cell-based; details: Table 7, Strain ID L (Table 6): S. pneumoniae Stpn_Mef S 3427
Protocol: as §1, §2, §3, §4
as §1, with “8” for “4”
as §5

[8] = test system: Streptococcus pneumoniae Stpn_Erm S 4297; format: cell-based; details: Table 7, Strain ID J (Table 6): S. pneumoniae Stpn_Erm S 4297
Protocol: as §1, §2, §3, §4
as §1, with “8” for “4”
as §5

[9] = test system: Staphylococcus epidermidis Step_f50654; format: cell-based; details: Table 7, Strain ID C (Table 6): S. epidermidis Step_f50654; in µg/mL (unit assumed)
Protocol: as §1, §2, §3, §4
as §1, with “8” for “4”
as §5

[10] = test system: Staphylococcus aureus Stau_29213; format: cell-based; details: Table 7, Strain ID A (Table 6): S. aureus Stau_29213; in µg/mL (unit assumed)
Protocol: as §1, §2, §3, §4
as §1, with “8” for “4”
as §5

[11] = test system: Enterococcus faecalis Enfa_29212; format: cell-based; details: Table 7, Strain ID D (Table 6): E. faecalis Enfa_29212
Protocol: as §1, §2, §3, §4
as §1, with “8” for “4”
as §5

[12] = test system: Streptococcus pneumoniae Stpn_49619; format: cell-based; details: Table 7, Strain ID F (Table 6): S. pneumoniae Stpn_49619
In short: as §6

[13] = test system: Streptococcus pneumoniae Stpn_297-749; format: cell-based; details: Table 7, Strain ID G (Table 6): S. pneumoniae Stpn_297-749
In short: as §6

Structure (SMILES) | MIC [1] | MIC [2] | MIC [3] | MIC [4] [µg/mL] | MIC [5] [µg/mL] | MIC [6] | MIC ([7]; in µg/mL (unit assumed)) | MIC ([8]; unit assumed) [µg/mL] | MIC [9] | MIC [10] | MIC ([11]; in µg/mL (unit assumed)) | MIC [12] | MIC [13] | MIC [8] | MIC [7] | MIC [11] | MIC ([2]; unit assumed) [µg/mL] | MIC ([3]; unit assumed) [µg/mL] | MIC ([12]; unit assumed) [µg/mL]
CCC1OC(=O)C(C)C(=O)C(C)C(OC2OC(C)CC(N(C)C)C2O)C(C)(OC)CC(C)C(=O)C(C)C2C1OC(=O)N2CCCCc1cnc2ccccc2c1 (stereo not drawn) [Compound 20n] | 0.2 | =0.05 | =0.05 | 0.4 (≈ 0.512 µM) | 6.25 (≈ 7.99 µM) | 0.2 | 0.1 | 0.1 (≈ 0.128 µM) | 0.4 | 0.4 | 0.1 | =0.05 | =0.05 |  |  |  |  |  | 
CC[C@H]1OC(=O)[C@@](C)(F)C(=O)[C@H](C)[C@@H](OC2O[C@H](C)C[C@H](N(C)C)[C@H]2O)[C@@](C)(OC)C[C@@H](C)C(=O)[C@H](C)[C@H]2N(CCCC(C)(C)n3cnc4cccnc43)C(=O)O[C@]12CC (stereo partly drawn) [Example 40, (3aS,4R,7S,9R,10R,11S,13R,15R,15aR)-3a,4-diethyl-7-fluoro-1-[4-(3H-imidazo[4,5-b]pyridin-3-yl)-4-methylpentyl]-11-methoxy-7,9,11,13,15-pentamethyl-2,6,8,14-tetraoxotetradecahydro-2H-oxacyclotetradecino[4,3-d][1,3]oxazol-10-yl-3,4,6-trideoxy-3-(dimethylamino)-D-xylo-hexopyranoside] | 0.78 | =0.05 | =0.05 | 0.2 (≈ 0.236 µM) | 6.25 (≈ 7.39 µM) | 0.2 | 0.2 |  | 0.2 | 0.2 | 0.1 | =0.05 | =0.05 | =0.05 |  |  |  |  | 
C/C=C\[C@]12OC(=O)N(CCCCn3cnc(-c4cccnc4)c3)[C@@H]1[C@@H](C)C(=O)[C@H](C)C[C@](C)(OC)[C@H](OC1O[C@H](C)C[C@H](N(C)C)[C@H]1O)[C@@H](C)C(=O)[C@](C)(F)C(=O)O[C@@H]2CC (stereo partly drawn) [Example 66, (3aS,4R,7S,9R,10R,11S,13R,15R,15aR)-4-ethyl-7-fluoro-11-methoxy-7,9,11,13,15-pentamethyl-2,6,8,14-tetraoxo-3a-[(1Z)-prop-1-enyl]-1-[4-(4-pyridin-3-yl-1H-imidazol-1-yl)butyl]tetradecahydro-1H-oxacyclotetradecino[4,3-d][1,3]oxazol-10-yl-3,4,6-trideoxy-3-(dimethylamino)-D-xylo-hexopyranoside] | 0.4 | =0.05 | =0.05 | 0.2 (≈ 0.234 µM) | 6.25 (≈ 7.3 µM) | 0.2 | 0.1 | 0.1 (≈ 0.117 µM) | 0.2 | 0.2 | .01 | =0.05 | =0.05 |  |  |  |  |  | 
CCC1OC(=O)C(C)C(=O)C(C)C(OC2OC(C)CC(N(C)C)C2O)C(C)(OC)CC(C)C(=O)C(C)C2C1OC(=O)N2CCCCn1ccc2ncccc21 (stereo not drawn) [Compound 20m] | 0.2 | =0.05 | =0.05 | 0.2 (≈ 0.259 µM) | 1.56 (≈ 2.02 µM) | 0.1 |  |  | 0.2 | 0.2 |  | =0.05 | =0.05 | =0.05 | =0.05 | =0.05 |  |  | 
CCC1OC(=O)C(C)C(=O)C(C)C(OC2OC(C)CC(N(C)C)C2O)C(C)(OC)CC(C)C(=O)C(C)C2C1OC(=O)N2CCCCc1ncc(-c2cccc(N)c2)s1 (stereo not drawn) [Compound 20v] | 0.78 | =0.05 | =0.05 | 50 (≈ 60.3 µM) | 6.25 (≈ 7.54 µM) | 0.4 |  | 0.4 (≈ 0.482 µM) | 0.2 | 0.4 | 0.2 | =0.05 | =0.05 |  | =0.05 |  |  |  | 
CCC1OC(=O)C(C)C(=O)C(C)C(OC2OC(C)CC(N(C)C)C2O)C(C)(OC)CC(C)C(=O)C(C)C2C1OC(=O)N2CCCCc1cc(C(F)(F)F)nc2ccccc12 (stereo not drawn) [Compound 20p] | 0.78 |  |  | 6.25 (≈ 7.35 µM) | 6.25 (≈ 7.35 µM) | 0.2 | 0.2 | 0.78 (≈ 0.918 µM) | 0.4 | 0.4 | 0.2 |  | =0.05 |  |  |  | 0.1 (≈ 0.118 µM) | 0.1 (≈ 0.118 µM) | 0.1 (≈ 0.118 µM)
CCC1OC(=O)C(C)C(=O)C(C)C(OC2OC(C)CC(N(C)C)C2O)C(C)(OC)CC(C)C(=O)C(C)C2C1OC(=O)N2OCCOc1ccccc1 (stereo not drawn) [Compound 20w] | 0.4 | =0.05 | =0.05 | 12.5 (≈ 17 µM) | 50 (≈ 68 µM) | 1.56 | 0.1 | 3.13 (≈ 4.26 µM) | 3.13 | 3.13 | 0.2 | =0.05 | =0.05 |  |  |  |  |  | 
CCC1OC(=O)C(C)C(=O)C(C)C(OC2OC(C)CC(N(C)C)C2O)C(C)(OC)CC(C)C(=O)C(C)C2C1OC(=O)N2CCCCc1ccnc2c(C(F)(F)F)cccc12 (stereo not drawn) [Compound 20q] | 0.4 | =0.05 | =0.05 | 1.56 (≈ 1.84 µM) | 12.5 (≈ 14.7 µM) | 0.2 | 0.1 | 0.2 (≈ 0.235 µM) | 0.4 | 0.4 | 0.1 | =0.05 | =0.05 |  |  |  |  |  | 
CCC1OC(=O)C(C)C(=O)C(C)C(OC2OC(C)CC(N(C)C)C2O)C(C)(OC)CC(C)C(=O)C(C)C2C1OC(=O)N2CCCCc1ncc(-c2ccccc2)s1 (stereo not drawn) [Compound 20t] | 1.56 | =0.05 |  | 25 (≈ 30.7 µM) | 12.5 (≈ 15.4 µM) | 0.78 | 0.1 | 1.56 (≈ 1.92 µM) | 0.4 | 0.78 | 0.4 | =0.05 | =0.05 |  |  |  |  | 0.2 (≈ 0.246 µM) | 
